Experimental data from US11814352B2, “Salts formed by 2-(1-acyloxy-n-pentyl) benzoic acid and basic amino acid or aminoguanidine, and preparation method and application thereof” (JIANGSU KANION PHARMACEUTICAL CO., LTD., priority 2018, dated 2023).
Where “and” joins values, the source holds several entries; their conditions need not be identical. Identical values can stand only once. Counter-ions that a name gives are not always drawn. Like-named read-outs stand apart in the source and are kept apart here.

Assays:
MCAO rats = assay: Cerebral infarction, cerebral edema and nerve function of rats with focal cerebral ischemia (MCAO); format: in vivo, SD rats
Experimental: The total number of the animals was 88.
Sham operation group: equal volume of normal saline (containing 1% DMSO) (iv. 3 days), TTC, cerebral edema and neurological function score (n=8); […]
The middle cerebral arteries of the rats were blocked by a suture-occluded method, and reperfused after 2 h. […] All drugs were formulated into normal saline solutions containing 1% DMSO for administration, and the duration of administration was controlled at approximately 1 min. […] 2 h after the last administration, the neurological defect scores were firstly obtained, and then the rats of each group were sacrificed. The whole brains were taken out and weighed (wet weight), TTC stained, and dried to determine the effects of the compounds on cerebral infarction and cerebral edema.
2 h after the last administration, the neurological defects of the animals were graded and scored by the Longa's method.
After the neurobehavioral examination was completed, four coronal incisions were made on the whole brains of the rats on the optic chiasma and 2 mm anteroposterior positions of the optic chiasma. After the whole brains were cut into five slices, the brain slices were quickly placed in 5 ml of phosphate buffer solution containing 2% TTC, and incubated at 37° C. in the dark. In the incubation process, the brain slices were turned once every 5 min. After 10 min of incubation, the brain slices were taken out and pictures were taken with a digital camera (Olympus C-4000, Japan).
The calculation formula of brain water content is as follows: Water content of brain tissue (%)=(wet weight of brain tissue−dry weight of brain tissue)/wet weight of brain tissue×100%; Cerebral edema rate (%)=water content of brain tissue of each group (%)−water content of brain tissue of sham operation group (%)/water content of brain tissue of sham operation group (%)×100%; Inhibition rate of cerebral edema (%)=(rate of cerebral edema of model group (%)−rate of cerebral edema of administration group (%))/rate of cerebral edema of model group (%)×100%.

[1] = tested on: ADP induced platelet aggregation; assay: In vitro anti-platelet aggregation, ADP induced (turbidimetry, PRP); format: cell-based, rabbits
Experimental: (§1) The animals were used for experiments after 1 week.
(§2) The common carotid artery was separated, and a polyethylene tube was inserted into the common carotid artery to collect blood. […] The upper beige suspension was pipetted to obtain the platelet-rich plasma (PRP). […] The PRP was adjusted with the PPP to make the platelet count at 1×10^8/mL.
(§3) 260 μL of platelet-rich plasma (PRP) was added into a turbidimetric tube. Then 10 μL of test compounds with different concentrations, positive control drugs or normal saline were separately added, and the plasma was incubated at 37° C. for 5 min. Then 30 μL of inducers were added in sequence. The final concentration of an inducer ADP is 10 μM, and the final concentration of an inducer AA is 1 mM. […] Inhibition rate of platelet aggregation (IRPA)=(platelet aggregation rate of the control group−platelet aggregation rate of the experimental group)/platelet aggregation rate of the control group×100%.

[2] = tested on: AA induced platelet aggregation; assay: In vitro anti-platelet aggregation, AA induced (turbidimetry, PRP); format: cell-based, rabbits
Experimental: as §1, §2, §3

[3] = literature value; cited from earlier work
[4] = tested on: arteriovenous bypass thrombosis in rats; assay: Effect on arteriovenous bypass thrombosis in rats; format: in vivo, SD rats; conditions: 10 mg/kg/day tail vein 7 days; for Dry weight of thrombus / Wet weight of thrombus: 2 h after last dose; for inhibition at 10 mg/kg/day: Rattus norvegicus, 168 h
Experimental: Male SD rats, weighing 250-280 g, purchased from Beijing Vital River Laboratory Animal Technology Co., Ltd., raised in an SPF breeding environment with indoor temperature controlled at 23±2° C., and allowed to freely eat and drink. The total number of the animals is 64.
Model group: injected with the same volume of normal saline (containing 1% DMSO) through the tail vein, and administered continuously for 7 days. The test was started 2 h after the last dose (n=8).
The dose of all drugs was 10 mg/kg/day. The drugs were formulated into normal saline solutions containing 1% DMSO, and injected through the tail vein for 7 consecutive days. The test was started 2 hours after the last dose (n=8).
The rats were intraperitoneally injected with a 3% pentobarbital sodium solution (30 mg/kg). After anesthesia, the rats were immobilized in the supine position, and a median cervical incision was made to separate the right common carotid artery and left external jugular vein. A 6 cm long suture was put in the middle of a polyethylene tube (the suture needs to be weighed before being put in the tube), and the polyethylene tube was filled with heparin saline (50 U/mL). The polyethylene tube was inserted into the separated blood vessels to make the artery and vein form a loop. After 15 min of circulation of the blood flow, the suture was taken out, and the suture with thrombus was collected and weighed immediately. Then, after the suture was dried at room temperature for 24 h, the dry weight was determined. The total weight minus the weight of the suture was the wet weight of the thrombus, and the dry weight minus the weight of the suture was the dry weight of the thrombus.

[5] = Solubility test (saturated solubility in water); format: physicochemical; conditions: 25±2° C.
Experimental: Test method: 10 mg of a test sample (solid was ground into fine powder) was weighed and added to a certain amount of solvent at 25±2° C. (the temperature of a water bath is controlled at 25° C.), and the solution was shaken vigorously for 30 s every 5 min. The dissolution was observed within 30 min. When there were no visible solute particles or droplets, the test sample was regarded as completely dissolved.

[6] = Concentration of metabolites in rat brain tissue after intravenous injection of I1s; format: in vivo; conditions: for Passage through the blood-brain barrier: detected in rat brain tissue after iv I1s; for concentration at 6 h: male, Sprague-Dawley, rat, brain, iv, 25 mg/kg, read-out: Concentration in brain tissue (single rats)
Experimental: (§4) 12 clean SD male rats, provided by Qinglongshan Animal Breeding Farm in Jiangning District, Nanjing. The production license number is SCXK (Jiangsu) 2017-0001. The body weight of the rats ranges from 180 to 220 g. The rats were used after being raised in the laboratory of an experimental animal center for 2 days after purchase, fasted for 12 hours before administration and 6 hours after administration, and were allowed to freely drink during the test period.
(§5) The concentration of the original drugs and metabolites in the rat blood were determined by LC-MS/MS, and WinNonlin pharmacokinetics professional software and a statistical moment method were used for calculation to obtain the corresponding pharmacokinetic parameters.

[7] = as above; format: in vivo; conditions: male, Sprague-Dawley, rat, brain, iv, 25 mg/kg; for concentration at 0.5 h: 0.5 h after intravenous injection of I1s; for concentration at 1 h: 1 h after intravenous injection of I1s
[8] = Pharmacokinetics of metabolites in rat plasma after intravenous injection of I1s; format: in vivo, SD male rats; conditions: metabolite in rat plasma after I1s 25 mg/kg tail vein, rats 1-3
Experimental: as §4, §5

[9] = tested on: bleeding time in mice after tail cutting; assay: Effect on bleeding time in mice after tail cutting; format: in vivo, Kunming mice; conditions: 5 mg/kg orally once a day for 14 days, 1 h after last dose
Experimental: SPF Kunming mice, weighing 18-22 g, purchased from Beijing Vital River Laboratory Animal Technology Co., Ltd., having a certificate number of SCXK (Beijing) 2010-0002, raised in an SPF animal room with indoor temperature controlled at 23±2° C., and allowed to freely eat and drink. The day and night time was 12 h/12 h.
The administration dose level of the positive drug groups and the test drug groups was 5 mg/kg, and the same amount of normal saline was given to the negative control group. All mice were administered for 14 consecutive days orally once a day. One hour after the last dose, the mice were anesthetized with 1-2% isoflurane, and the tails were cut for 5 mm. The tips of the tails were absorbed dry with filter paper every 30 seconds until the bleeding stopped naturally. Bleeding time is defined as the interval between the start and stop of bleeding.

[10] = iv 2 h after the beginning of reperfusion, 5 mg/kg
[11] = iv at the beginning of reperfusion, 5 mg/kg
[12] = read-out: IC50 ADP (10 μM), rabbit PRP, inducer ADP 10 μM, 37° C.
[13] = read-out: IC50 AA (1 mM), rabbit PRP, inducer AA 1 mM, 37° C.
[14] = MCAO rats, 10 mg/kg/day iv 3 days (combinations equimolar), first dose 2 h after reperfusion
[15] = 6 h after intravenous injection of I1s
[16] = read-out: Concentration in brain tissue (single rats)
[17] = read-out: Concentration in brain tissue, Mean
[18] = male, Sprague-Dawley, rat, plasma, iv, 25 mg/kg
[19] = male, Sprague-Dawley, rat, plasma, iv, 25 mg/kg, read-out: AUC(0-t)
[20] = male, Sprague-Dawley, rat, plasma, iv, 25 mg/kg, read-out: Cmax
[21] = Oryctolagus cuniculus, Platelet, read-out: IC50 ADP (10 μM), rabbit PRP, inducer ADP 10 μM, 37° C.

CCCCC(OC(=O)CCC)c1ccccc1C(=O)O (racemic) (as salt: salt) [I3, L-Arginine (R/S)-2-(1-N-Butyryloxy-n-Pentyl) Benzoate]
melting point: 152 to 153 °C

CCCCC1OC(=O)c2ccccc21 (racemic) [(R/S)-NBP, racemic (R/S)-3-N-butyl-1(3H)-isobenzofuranone]
Cerebral edema (MCAO rats; [10]): 6.72 ± 4.05% | Infarct volume (MCAO rats; [10]): 36.50 ± 7.58% | Inhibition rate of cerebral edema (MCAO rats; [10]): 28.80% | Inhibition rate of infarct volume (MCAO rats; [10]): 26.43% | Cerebral edema (MCAO rats; [11]): 5.80 ± 1.83% | Infarct volume (MCAO rats; [11]): 28.55 ± 8.25% | Inhibition rate of cerebral edema (MCAO rats; [11]): 40.21% | Inhibition rate of infarct volume (MCAO rats; [11]): 41.96% | IC50 [1, 12]: 1360 ± 130 µM | IC50 [2, 13]: 600 ± 70 µM | half-life [3]: 0.733 h

CCCCC(OC(=O)CC)c1ccccc1C(=O)O (racemic) (as salt: salt) [I2, L-Arginine (R/S)-2-(1-Propionyloxy-n-Pentyl) Benzoate]
melting point: 169 to 171 °C

CCCCC(O)c1ccccc1C(=O)[O-].[K+] (racemic) [PHPB, Potassium (R/S)-2-(1-hydroxy-n-pentyl) benzoate]
Cerebral edema (MCAO rats; [14]): 10.71 ± 3.55% | Infarct volume (MCAO rats; [14]): 20.23 ± 3.02% | Inhibition rate of cerebral edema (MCAO rats; [14]): 33.23% | Inhibition rate of infarct volume (MCAO rats; [14]): 51.66% | IC50 [1, 12]: 960 ± 70 µM | Dry weight of thrombus [4]: 8.90 ± 0.45 | Wet weight of thrombus [4]: 30.64 ± 10.21 | Inhibition rate (dry weight of thrombus) ([4]; vs model group): 11.32% | Inhibition rate (wet weight of thrombus) ([4]; vs model group): 15.39% | Saturated solubility in H2O, Mean [5]: 147.07 mg/mL | Saturated solubility in H2O, dissolved sample amount (single determinations) [5]: 148.30 mg/mL and 148.04 mg/mL and 145.97 mg/mL and 145.98 mg/mL | IC50 [2, 13]: 350 ± 90 µM | half-life [3]: 0.75 h

CCCC[C@H](O)c1ccccc1C(=O)O [M3, (S)-2-(1-hydroxy-n-pentyl)benzoic acid]
Concentration in brain tissue (single rats) ([6]; 0.5 h after intravenous injection of I1s): 118.09 ng/g and 137.01 ng/g | Concentration in brain tissue (single rats) ([6]; 1 h after intravenous injection of I1s): 39.47 ng/g and 32.78 ng/g | Concentration in brain tissue (single rats) [6, 15]: 31.33 ng/g and 32.14 ng/g | Passage through the blood-brain barrier [6]: could all pass through the blood-brain barrier | concentration at 6 h [6, 15]: 31.1 ng/g | concentration at 0.5 h [7, 16]: 76.8 ng/g | concentration at 0.5 h [7, 17]: 111 ng/g | concentration at 1 h [7, 16]: 35.5 ng/g | concentration at 1 h [7, 17]: 35.9 ng/g | concentration at 6 h [7, 15]: 31.5 ng/g | AUC(0-inf) [8, 18]: 624 ng·h/mL | clearance [8, 18]: 668 mL/min/kg | AUC(0-t) [8, 19]: 518 ng·h/mL | Cmax [8, 20]: 737 ng/mL | AUC(0-t) [8]: 577.8 ng·h/mL and 492.6 ng·h/mL | AUC(0-∞) [8]: 673.9 ng·h/mL and 858.7 ng·h/mL | Cl [8]: 618.2922 mL/min/kg and 485.2238 mL/min/kg | Cmax [8]: 876.5 ng/mL and 569.2 ng/mL

CC(=O)Oc1ccccc1C(=O)O [Aspirin]
Bleeding time [9]: 22.52 ± 1.31 min | IC50 [1, 21]: 780 ± 50 µM | Dry weight of thrombus [4]: 6.06 ± 0.46 | Wet weight of thrombus [4]: 21.46 ± 1.76 | inhibition at 10 mg/kg/day ([4]; vs model group, read-out: Inhibition rate (dry weight of thrombus)): 39.7% | inhibition at 10 mg/kg/day ([4]; vs model group, read-out: Inhibition rate (wet weight of thrombus)): 40.7% | IC50 ([2]; Oryctolagus cuniculus, Platelet, read-out: IC50 AA (1 mM), rabbit PRP, inducer AA 1 mM, 37° C.): 160 ± 10 µM

COC(=O)[C@H](c1ccccc1Cl)N1CCc2sccc2C1 [Clopidogrel]
Bleeding time [9]: 25.28 ± 0.48 min

CCCC[C@H](OC(C)=O)c1ccccc1C(=O)O [(S)-APB, (S)-2-(1-acetoxy-n-pentyl)benzoic acid]
Passage through the blood-brain barrier [6]: could all pass through the blood-brain barrier | concentration at 6 h [6, 15]: 26.1 ng/g | IC50 [1, 21]: 790 ± 80 µM | IC50 [2, 13]: 430 ± 50 µM | half-life ([8]; male, Sprague-Dawley, rat, plasma, intravenous, 25 mg/kg): ~3 h | AUC(0-inf) [8, 18]: 31800 ng·h/mL | clearance [8, 18]: 13.1 mL/min/kg | half-life [8, 18]: 2.71 h | AUC(0-t) [8, 19]: 31700 ng·h/mL | Cmax [8, 20]: 51400 ng/mL | AUC(0-t) ([8]; listed as M2): 28614.9 ng·h/mL and 28503.7 ng·h/mL | AUC(0-∞) ([8]; listed as M2): 28748.5 ng·h/mL and 28703.5 ng·h/mL | Cl ([8]; listed as M2): 14.494 mL/min/kg and 14.516 mL/min/kg | Cmax ([8]; listed as M2): 53513.2 ng/mL and 52069.2 ng/mL | Vz ([8]; listed as M2): 4.1842 L/kg and 4.8584 L/kg
